Experimental data from a compilation of properties of binary mixtures (doi:10.1039/c5cp02799c).

Experiment: xn = mol fraction of the nth substance listed
Conditions: 101.3 kPa

CCCCC[P+](CC)(CC)CC.O=S(=O)([N-]S(=O)(=O)C(F)(F)F)C(F)(F)F + O=S(=O)([N-]S(=O)(=O)C(F)(F)F)C(F)(F)F.[Li+]
Conditions | electrical conductivity [S/m] | viscosity [mPa·s]
298.2 K, x2 = 0.25 | 0.062 | –
298.2 K, x2 = 0.39 | 0.016 | 1300
298.3 K, x2 = 0.25 | – | 310
300.2 K, x2 = 0.25 | – | 270
300.2 K, x2 = 0.39 | 0.019 | –
300.3 K, x2 = 0.25 | 0.075 | –
306.2 K, x2 = 0.25 | 0.1 | –
306.2 K, x2 = 0.39 | 0.028 | 670
306.3 K, x2 = 0.25 | – | 180
312.2 K, x2 = 0.39 | 0.041 | –
312.3 K, x2 = 0.25 | 0.14 | 130
312.3 K, x2 = 0.39 | – | 440
318.2 K, x2 = 0.39 | 0.058 | 290
318.3 K, x2 = 0.25 | 0.18 | 95
324.3 K, x2 = 0.25 | 0.23 | 71
330.3 K, x2 = 0.25 | 0.29 | –
330.4 K, x2 = 0.25 | – | 54
336.2 K, x2 = 0.39 | 0.15 | 110
341.2 K, x2 = 0.39 | – | 85
348.2 K, x2 = 0.39 | 0.24 | 63
355.2 K, x2 = 0.39 | – | 47
355.3 K, x2 = 0.25 | – | 21
361.3 K, x2 = 0.25 | 0.73 | –
361.4 K, x2 = 0.25 | – | 18
374.2 K, x2 = 0.25 | – | 12
374.2 K, x2 = 0.39 | – | 24

CC[P+](CC)(CC)CCOC.O=S(=O)([N-]S(=O)(=O)C(F)(F)F)C(F)(F)F + O=S(=O)([N-]S(=O)(=O)C(F)(F)F)C(F)(F)F.[Li+]
Conditions | electrical conductivity [S/m] | viscosity [mPa·s]
298.2 K, x2 = 0.39 | 0.51 | 620
300.1 K, x2 = 0.39 | – | 540
300.2 K, x2 = 0.25 | – | 150
300.2 K, x2 = 0.39 | 0.55 | –
300.3 K, x2 = 0.25 | 1.1 | –
306.1 K, x2 = 0.39 | – | 360
306.2 K, x2 = 0.25 | 1.2 | –
306.2 K, x2 = 0.39 | 0.68 | –
306.3 K, x2 = 0.25 | – | 110
312.2 K, x2 = 0.25 | – | 81
312.3 K, x2 = 0.25 | 1.3 | –
312.3 K, x2 = 0.39 | – | 250
318.1 K, x2 = 0.39 | – | 180
318.2 K, x2 = 0.39 | 0.91 | –
318.3 K, x2 = 0.25 | 1.4 | 61
324.2 K, x2 = 0.25 | – | 47
324.2 K, x2 = 0.39 | 1 | 130
324.3 K, x2 = 0.25 | 1.4 | –
330.2 K, x2 = 0.39 | 1.1 | 95
330.3 K, x2 = 0.25 | 1.5 | 37
336.2 K, x2 = 0.39 | 1.2 | 72
336.3 K, x2 = 0.25 | 1.6 | 30
341.1 K, x2 = 0.39 | – | 58
341.3 K, x2 = 0.25 | – | 25
348.2 K, x2 = 0.25 | 1.7 | 20
348.2 K, x2 = 0.39 | 1.3 | 45
355.2 K, x2 = 0.39 | – | 34
361.2 K, x2 = 0.39 | – | 28
361.3 K, x2 = 0.25 | 1.8 | 14
374.2 K, x2 = 0.39 | – | 19
374.3 K, x2 = 0.25 | – | 10
